# Assays:
# [1] = molecular target: T1, Metabotropic glutamate receptor 1 (Homo sapiens, UniProt Q13255); assay: Inhibitory concentration for half maximal inhibition of PI hydrolysis (mGluR1a)
# [2] = molecular target: T1, Metabotropic glutamate receptor 1; assay: Effective concentration for half maximal stimulation of PI hydrolysis (mGluR1a)
# T1 sequence (Q13255 whole entry): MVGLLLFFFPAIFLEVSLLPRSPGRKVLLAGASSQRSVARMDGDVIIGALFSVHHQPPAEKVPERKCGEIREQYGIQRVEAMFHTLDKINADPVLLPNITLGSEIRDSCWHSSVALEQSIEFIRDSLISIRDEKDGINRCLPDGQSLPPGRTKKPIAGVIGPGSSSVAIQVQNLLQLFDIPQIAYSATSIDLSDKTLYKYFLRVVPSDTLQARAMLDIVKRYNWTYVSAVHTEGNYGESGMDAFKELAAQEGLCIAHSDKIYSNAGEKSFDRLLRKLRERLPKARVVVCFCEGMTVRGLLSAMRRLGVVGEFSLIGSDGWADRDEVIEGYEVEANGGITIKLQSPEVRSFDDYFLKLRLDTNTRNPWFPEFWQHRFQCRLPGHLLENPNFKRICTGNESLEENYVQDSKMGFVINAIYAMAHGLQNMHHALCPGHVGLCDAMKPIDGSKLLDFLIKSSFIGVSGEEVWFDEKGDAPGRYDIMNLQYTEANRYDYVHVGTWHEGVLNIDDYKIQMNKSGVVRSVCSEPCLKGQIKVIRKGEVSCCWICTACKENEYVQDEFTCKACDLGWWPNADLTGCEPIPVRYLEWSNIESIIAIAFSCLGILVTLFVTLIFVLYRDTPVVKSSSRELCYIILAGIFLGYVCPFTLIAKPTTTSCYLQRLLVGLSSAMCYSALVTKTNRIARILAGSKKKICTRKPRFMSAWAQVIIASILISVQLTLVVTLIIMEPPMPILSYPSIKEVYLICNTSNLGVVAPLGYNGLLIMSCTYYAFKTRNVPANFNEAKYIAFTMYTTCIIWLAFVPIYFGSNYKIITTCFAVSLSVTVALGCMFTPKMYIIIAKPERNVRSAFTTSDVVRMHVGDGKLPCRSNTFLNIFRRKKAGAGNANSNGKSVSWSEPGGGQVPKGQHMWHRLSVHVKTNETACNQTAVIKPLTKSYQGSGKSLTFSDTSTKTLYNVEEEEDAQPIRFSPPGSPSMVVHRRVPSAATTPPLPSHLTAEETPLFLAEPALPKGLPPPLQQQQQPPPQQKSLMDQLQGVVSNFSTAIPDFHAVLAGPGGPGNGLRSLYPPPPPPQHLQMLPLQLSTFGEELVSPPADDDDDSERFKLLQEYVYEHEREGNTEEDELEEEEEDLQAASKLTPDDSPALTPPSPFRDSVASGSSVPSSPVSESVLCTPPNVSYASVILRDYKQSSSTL
Compound,IC50 [1] [µM],EC50 [2] [µM]
NC1(C(=O)O)CCc2cc(C(=O)O)ccc21 (stereo unspecified),214,–
N[C@H](C(=O)O)c1cccc(O)c1,–,68
N[C@H](C(=O)O)c1ccc(C(=O)O)cc1,65,–
N[C@H](C(=O)O)c1cc(=O)[nH]o1 [IBOTENIC ACID],–,6

# More lines, main results first:
IC50 [1] [µM],Compound,EC50 [2] [µM]
290,N[C@H](C(=O)O)c1ccc(O)c(C(=O)O)c1,–
40,N[C@H](C(=O)O)c1ccc(C(=O)O)c(O)c1,–

# Reference: ChEMBL document CHEMBL1129799, “Homology modeling of metabotropic glutamate receptors. (mGluRs) structural motifs affecting binding modes and pharmacological profile of mGluR1 agonists and competitive antagonists” (J Med Chem, 1996)
